In article PMC10136296, “Biological Screening and Crystallographic Studies of Hydroxy γ-Lactone Derivatives to Investigate PPARγ Phosphorylation Inhibition” (Biomolecules, 2023):

How the values were obtained:
[1] = biological target: T1, human PPARγ subtype (hPPARγ), Gal4-PPARγ-LBD (Homo sapiens, UniProt P37231); experiment: GAL4-PPAR transactivation assay, agonist mode; format: cell-based; settings: HepG2, up to 100 µM; rosiglitazone maximum = 100%
T1 construct: expressed in transfected cells; host or cells: HepG2
T1 sequence (P37231 238-503 limits assumed): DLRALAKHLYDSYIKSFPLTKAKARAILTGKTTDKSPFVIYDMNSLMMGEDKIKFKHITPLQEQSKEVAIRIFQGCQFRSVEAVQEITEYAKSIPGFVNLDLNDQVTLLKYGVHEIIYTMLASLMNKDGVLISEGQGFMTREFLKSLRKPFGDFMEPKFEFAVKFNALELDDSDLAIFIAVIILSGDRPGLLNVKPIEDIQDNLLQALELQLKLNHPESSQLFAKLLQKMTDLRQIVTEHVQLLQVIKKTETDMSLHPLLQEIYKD
From the text: (§1) Reference compounds, the cell culture medium, and the reagents were purchased from Sigma-Aldrich (Merck KGaA). The expression vectors bearing the chimeric receptor containing the yeast Gal4-DNA binding domain fused to the human PPARγ-LBD, and the reporter plasmid for this Gal4 chimeric receptor (pGal5TKpGL3), comprising five repeats of the Gal4 response elements upstream of a minimal thymidine kinase promoter adjacent to the coding sequence for luciferase, were described in a previous study. A culture of the human hepatoblastoma cell line HepG2 (Interlab Cell Line Collection, Genoa, Italy) was conducted in minimum essential medium (MEM) containing 10% heat-inactivated fetal bovine serum, 100 U of penicillin G mL^−1, and 100 μg mL^−1 of streptomycin sulfate at 37 °C in a humidified atmosphere of 5% CO2. For transactivation assays, cells were seeded in a 24-well plate at a concentration of 10^5 cells per well and were transfected after 24 h by CAPHOS, a calcium phosphate method, according to the manufacturer’s guidelines. Cell transfection was performed using expression plasmids encoding the fusion protein Gal4-PPARγ-LBD (30 ng), pGal5TKpGL3 (100 ng), and pCMVβgal (250 ng). […] Cell extracts were subsequently analyzed for luciferase activity via luminometry (VICTOR^3 V multilabel plate reader; PerkinElmer, Waltham, MA, USA). ortho-Nitrophenyl-β-D-galactopyranoside was used to measure β-galactosidase activity, following a previously described method. […]
(§2) Furthermore, compounds 1–3 were evaluated in vitro for their agonist activity towards the human PPARγ subtype (hPPARγ) by employing the GAL4-PPAR transactivation assay. […] We evaluated the efficacy of 1–3 on PPARγ at increasing concentrations up to 100 μM. […] The compounds were also analyzed in antagonist mode by conducting a competitive binding assay, in which PPARγ activity was measured at a fixed concentration of the reference agonist rosiglitazone (1 µM) in cells treated with increasing concentrations of 1–3. […]

[2] = test system: PPARγ Ser245 phosphorylation by CDK5/p35; experiment: In vitro kinase assay: CDK5-mediated phosphorylation of PPARγ-LBD (Pro-Q Diamond stain); format: biochemical; settings: 10 µM ligand, 30 min at 30 °C
Procedure: The assay was performed on PPARγ-LBD, in the apo-form and in the complex with ligands 1–3. For the kinase assay, stock solutions of ligands were prepared by diluting with 100% DMSO to a concentration of 500 μM. The stock solutions were further diluted with 50 mM Tris-HCl, pH 7.5, up to the final concentration of 10 μM and pre-equilibrated overnight at 4 °C with the protein.
The kinase assay was carried out for 30 min at 30 °C in 50 μL of the assay buffer containing 50 mM Tris-HCl, pH 7.5, 800 ng of PPARγ-LBD, 10 μM ligand, 1% DMSO, 2.5 mM MgCl2, 50 μM DTT, 500 μM ATP, 40 ng of CDK5/p35 (Sigma-Aldrich code no. SRP5011; Merck KGaA). The experiment was performed in triplicate.
Pro-Q™ Diamond phosphoprotein gel stain (ThermoFisher, Waltham, MA, USA) provides a convenient method for selectively staining phosphoproteins in acrylamide gels, without the need for blotting or the use of phosphoprotein-specific antibodies. After performing electrophoresis, the gel was stained with Pro-Q™ Diamond and analyzed using a Chemidoc Imaging System (Bio-Rad). A further step of gel staining with SYPRO™ Ruby total-protein gel stain (ThermoFisher) was performed. Determining the ratio of the signal intensities of Pro-Q™ Diamond dye to SYPRO™ Ruby dye for each band provides a measure of the phosphorylation level normalized to the total amount of protein. More detailed information on the protocol used in this experiment can be obtained on the ThermoFisher website.
Finally, to assess the ability of 1–3 to inhibit the CDK5-mediated phosphorylation of PPARγ in vitro, a kinase assay was set up and optimized to measure the inhibition rate, as described in the experimental section. The phosphoproteins were detected and quantified by using the Pro-Q™ Diamond phosphoprotein gel stain method.

[3] = biological target: T1, human PPARγ subtype (hPPARγ), Gal4-PPARγ-LBD; experiment: GAL4-PPAR transactivation assay, antagonist mode (competition with rosiglitazone); format: cell-based; settings: HepG2, antagonist mode vs rosiglitazone 1 µM; mean ± SEM; uncertain above 10 µM because of cytotoxicity
From the text: as §1, §2

PPARγ-LBD = biological target: T2, PPARγ-LBD (Homo sapiens, UniProt P37231); experiment: SPR full kinetic analysis on immobilized PPARγ-LBD; format: binding; settings: for Kd: SPR full kinetic analysis, KD = Koff/Kon; for koff / kon: SPR, 25 °C, 5 μM to 312 nM, 1:1 model
T2 construct: PPARγ-LBD (NP_001120802; aa 207−474) was expressed as an N-terminal His-tagged protein; His-tag (N, cleaved yes); made in house; host or cells: E. coli BL21(DE3), pET-28a(+)
T2 sequence (P37231 207-474 isoform P37231-2 limits assumed): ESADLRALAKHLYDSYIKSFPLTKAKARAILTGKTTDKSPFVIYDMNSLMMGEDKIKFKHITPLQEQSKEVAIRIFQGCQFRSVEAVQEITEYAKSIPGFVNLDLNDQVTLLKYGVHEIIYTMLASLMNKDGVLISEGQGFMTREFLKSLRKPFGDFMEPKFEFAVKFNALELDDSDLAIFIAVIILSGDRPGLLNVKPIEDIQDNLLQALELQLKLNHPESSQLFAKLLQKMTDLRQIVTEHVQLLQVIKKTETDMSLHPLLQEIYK
Procedure: SPR experiments were performed at 25 °C using a Pioneer AE optical biosensor (Sartorius, Varedo, Italy) equipped with a PCH sensor chip (linear polycarboxylate hydrogel layer) and equilibrated with running buffer 10 mM Hepes, pH 7.4, 150 mM NaCl, 0.005% Tween-20, 1% DMSO. The PCH sensor chip was installed and conditioned in accordance with the manufacturer’s instructions. PPARγ-LBD was immobilized on the surface using amine coupling chemistry. Briefly, flow cells were activated for 5 min by injecting 125 μL of 1:1 ratio of 100 mM N-hydroxysuccinimide (NHS)/400 mM N-ethyl-N’-(3-(dimethylamino)propyl)carbodiimide (EDC). The protein solution (150 μg mL^−1 in 10 mM Na Acetate, pH 4.5) was then injected at 10 μL min^−1, followed by a 70 μL injection of 1 M ethanolamine (pH 8.0) to block any remaining activated groups on the surface. Approximately 11,770 and 10,800 RUs of protein were immobilized on Channel 1 and Channel 3 of the sensor chip, respectively, whereas Channel 2 was used as a reference for non-specific binding. […] The analytes were dialyzed in the running buffer (1% final DMSO concentration) and primary screened using OneStep® injection technology, which allows the compounds to diffuse into a moving stream of buffer to generate a concentration gradient (from 0 up to 10 μM) during a single injection at a flow rate of 50 μL min^−1 [40]. For each analyte injection, a long dissociation (600 s) was allowed, and regeneration of the sensing surface was not used. Next, the full kinetic analysis of the selected compounds was performed at different serial concentrations (from 5 μM to 312 nM) for 120 s at a constant flow rate of 50 μL min^−1. For each analyte injection, a dissociation of 180 s was allowed, followed by a short mild regeneration step with 1 M NaCl. All sensorgrams were processed using double referencing. First, responses from the reference surface (Channel 2) were subtracted from the binding responses collected over the reaction surfaces to correct for bulk refractive index changes between the flow buffer and analyte sample. Second, the response from the closest blank injection (zero analyte concentration) was subtracted to compensate for drift and small differences between the activated channel and the reference flow cell Channel 2. As an internal control for the gradient dispersion process, an injection of 3% sucrose dissolved in the assay buffer was performed for all the injections to ensure proper gradient formation and to calibrate for buffer viscosity. To obtain kinetic rate constants and affinity constants, the corrected response data were fitted in QDAT software provided with the instrument (BioLogic Software, Canberra, Australia). A kinetic analysis of the ligand/analyte interaction was obtained by fitting the response data to a reversible 1:1 bimolecular interaction model. The equilibrium dissociation constant (KD) was determined by the ratio Koff/Kon. This experiment was performed in duplicate.
The OneStep® injection technology was used for the screening of our compound collection. This method has been successfully employed in our previous work to test a series of natural products, extracted from medicinal plants. Its efficiency and reliability as a screening technique were confirmed by the rapid identification of promising compounds. This approach is based on the well-established concept of Taylor dispersion injection, which allows the compound to diffuse into a moving stream of buffer, producing a gradient throughout the injections. In this way, a wide range of analyte concentrations can be readily tested. In this assay, all the ligands from the DMSO stock solutions were dialyzed into the running buffer at 10 μM (1% final DMSO concentration) and gradient-injected for 120 s over the sensor chip surface. […]

CDK5/p35 = biological target: T3, CDK5/p35 (Homo sapiens, UniProt Q00535); experiment: CDK5 inhibition test with histone H2A/H2B as substrate; format: biochemical; settings: 5 µM ligand, H2a/H2b as phosphorylation target
T3 construct: purchased Sigma-Aldrich (Merck KGaA) SRP5011
T3 sequence (Q00535 whole entry): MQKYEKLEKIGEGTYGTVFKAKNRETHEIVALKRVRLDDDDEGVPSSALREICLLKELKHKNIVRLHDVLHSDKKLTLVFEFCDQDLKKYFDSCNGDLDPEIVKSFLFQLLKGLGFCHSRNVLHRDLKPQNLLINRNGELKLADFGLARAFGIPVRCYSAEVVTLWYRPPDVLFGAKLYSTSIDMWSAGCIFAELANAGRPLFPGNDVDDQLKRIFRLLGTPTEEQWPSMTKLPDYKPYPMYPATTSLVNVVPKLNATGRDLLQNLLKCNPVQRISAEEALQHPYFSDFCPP
T3 sequence (Q15078 whole entry partner): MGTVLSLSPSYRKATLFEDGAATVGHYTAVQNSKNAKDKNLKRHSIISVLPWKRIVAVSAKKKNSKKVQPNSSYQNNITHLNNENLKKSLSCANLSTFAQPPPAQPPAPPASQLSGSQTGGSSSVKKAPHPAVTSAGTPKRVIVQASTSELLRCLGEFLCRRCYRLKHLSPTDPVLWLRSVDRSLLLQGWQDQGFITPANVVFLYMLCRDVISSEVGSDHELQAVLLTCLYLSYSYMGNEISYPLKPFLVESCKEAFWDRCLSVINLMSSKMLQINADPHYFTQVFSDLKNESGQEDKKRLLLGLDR
Procedure: The degree of CDK5 inhibition in the presence of compounds 1, 2, and 3 was evaluated with the same protocol described above for the in vitro kinase assay. In detail, the test was carried out for 30 min at 30 °C in 50 μL of the assay buffer containing 50 mM Tris-HCl, pH 7.5, 800 ng H2A/H2B, 5 μM ligand (for the calculation of the ligand concentration, the excess amount of compounds 1, 2, and 3 possibly not bound to PPARγ was overestimated), 1% DMSO, 2.5 mM MgCl2, 50 μM DTT, 500 μM ATP, 40 ng of CDK5/p35 (Sigma-Aldrich code no. SRP5011; Merck KGaA). The Pro-Q™ Diamond Phosphoprotein Gel Stain method and a Chemidoc Imaging System (Bio-Rad) were used for measuring the phosphorylation level. The experiment was performed in triplicate and the statistical significance was estimated as above.
Furthermore, these molecules were also screened as potential inhibitors of CDK5 itself, considering their structural similarity to BLI (Figure 2), which was reported in the literature as both a PPARγ partial agonist and a CDK5 inhibitor [10]. A kinase activity test was performed in the presence of compounds 1, 2, and 3, using histone H2a/H2b as a phosphorylation target.

HepG2 = experiment: Cytotoxicity seen by microscopy in the transactivation assay; format: cell-based, human; settings: HepG2, at 25 and 100 µM, visually examined, data not shown
Procedure: Furthermore, compounds 1–3 were evaluated in vitro for their agonist activity towards the human PPARγ subtype (hPPARγ) by employing the GAL4-PPAR transactivation assay. The results were compared to the corresponding data for rosiglitazone, used as a reference in the test. The maximum fold induction obtained with the reference agonist was defined as 100%. We evaluated the efficacy of 1–3 on PPARγ at increasing concentrations up to 100 μM. […] The compounds were also analyzed in antagonist mode by conducting a competitive binding assay, in which PPARγ activity was measured at a fixed concentration of the reference agonist rosiglitazone (1 µM) in cells treated with increasing concentrations of 1–3. The inhibition curves, from which the IC50 values were extrapolated as mean ± SEM of three duplicate experiments, are reported in Figure 4A. […] Consequently, the IC50 values could not be estimated with a certainty above 10 µM, which was the threshold at which the cytotoxicity was null or negligible. From the inhibition curves (Figure 4A), we hypothesized the absence of antagonism: the activity remained unchanged up to 10 µM and then decreased at 25 µM and 100 µM. However, at these concentrations, the signal reduction could not be unequivocally attributed to PPARγ antagonism, due to the cytotoxic effects of the compounds at higher doses.

agonist activity in the PPARγ transactivation assay [1]	inhibition of Ser245 phosphorylation [2]	Kd (PPARγ-LBD)	koff (PPARγ-LBD)	kon (PPARγ-LBD)	CDK5 inhibition (CDK5/p35)	melting point	SMILES	IC50 [3]	cytotoxicity (HepG2)
PPARγ non-agonists	~40%	1.93 ± 0.02 µM	0.02241 ± 9e-05 s⁻¹	11700 ± 1e+06 M⁻¹ s⁻¹	more significant inhibitory activity		O=C1OC(c2cccc(O)c2)C(C(=O)c2ccccc2)=C1O (stereo not drawn) [Compound 2, 4-Benzoyl-3-hydroxy-5-(3-hydroxyphenyl)furan-2(5H)-one]	35.1 ± 2.8 µM	
PPARγ non-agonists	~40%	3.75 ± 0.06 µM	0.0679 ± 0.0004 s⁻¹	18100 ± 3e+06 M⁻¹ s⁻¹	very low inhibition effect	194 to 195 °C (dec.)	O=C1OC(c2cccc(O)c2)C(c2ccc(Br)cc2)=C1O (stereo not drawn) [Compound 1, 4-(4-Bromophenyl)-3-hydroxy-5-(3-hydroxyphenyl)furan-2(5H)-one]	39.9 ± 1.2 µM	
PPARγ non-agonists	~40%	1.67 ± 0.02 µM	0.0362 ± 0.0001 s⁻¹	21700 ± 2e+06 M⁻¹ s⁻¹	more significant inhibitory activity	204 °C	O=C1OC(c2ccc(OCc3cccc4ccccc34)cc2)C(c2ccccc2)=C1O (stereo not drawn) [Compound 3, 3-Hydroxy-5-(4-(naphthalen-1-ylmethoxy)phenyl)-4-phenylfuran-2(5H)-one]	16.2 ± 2.5 µM	a certain cytotoxicity
